# US20250099411A1, “Methods of Treatment of Inflammation Related Conditions Using Pluripotent Anti-Inflammatory and Metabolic Modulators” (Institut Pasteur de Montevideo, priority 2018, published 2025)
# Legend:
# [1] = system: Nrf2/Keap I-dependent gene expression; experiment: Nrf2/Keap I-dependent phase two enzyme gene expression (HO-I, GCLM, NQO I qPCR) in Hep G2 cells; type: cell-based; details: Hep G2, five hours, SANA 0.1 mM, Salicylic Acid 0.2 and 5 mM
# Procedure: FIGS. 6 and 7 show induction of phase two enzymes Nrf2/Keap I-dependent gene expression by SANA but not by SA Hep G2 cells were treated with SANA (0.1 mM) or Salicylic Acid (0.2 and 5 mM) for five hours. mRNA was extracted from the cells and was measured HO-I, GCLM and NQO I gene expression by qPCR.
# inflammasome = experiment: Inflammasome inhibition (IL-lb ELISA) in THP-1 cells differentiated into macrophages, LPS then ATP; type: cell-based, human; details: for inhibition of the inflammasome (IL-lb), applied with the second signal: together with ATP (5 mM, 45 minutes) after LPS, SANA 0.05-0.25 mM, SA 0.25 mM; for inhibition of the inflammasome (IL-lb), applied with the first signal: together with LPS (250 ng/ml, 3 hs.), then ATP 5 mM 45 minutes, SANA 0.05-0.25, SA 0.25 mM
# Procedure: In FIGS. 8 and 9 show the inhibition of inflammasome in THP-1 cells differentiated into macrophages (PMA 200 nM, 48 hs.) by SANA but not by SA when applied together with the first (FIG. 8) or the second (FIG. 9) signal. In FIG. 8 cells were treated with Salicylic acid (0.25 mM) or SANA (0.05; 0.125 and 0.25) together with LPS stimulation. The cells were stimulated with LPS (250 ng/ml, 3 hs.) and then with ATP (5 mM, 45 minutes). Supernatant was collected and IL-lb measured by ELISA Cell viability was assessed by MTT assay. […] In FIG. 9 THP-1 cells were differentiated into macrophages with PMA (200 nM, 48 hs.). Cells were stimulated with LPS (250 ng/ml, 3 hs.) and then with ATP (5 mM, 45 minutes). Together with ATP treatment, cells were then treated with NAT×ME (10 uM), Salicylic acid (0.25 mM) or SANA (0.05; 0.125 and 0.25 mM). Supernatant was collected and IL-lb secretion was measured by ELISA Cell viability was assessed by the MTT assay.
# 11-lb secretion = experiment: LPS-induced 11-lb secretion into the peritoneum in vivo
# [2] = Thermogenesis / body temperature of mice on HFD; type: in vivo
# Text: (§1) While not wishing to be bound by theory, thermogenesis and weight loss are a result of AMPK activation together with white adipose tissue and mitochondrial uncoupling. […] SANA's beneficial effects also include reducing adverse effects related to obesity. […] FIGS. 22 and 23, compare the body temperatures of mice on normal diets (“ND”), HFD, and HFD with administration of SANA.
# [3] = Thermogenesis and weight loss in mice on a normal diet; type: in vivo
# Text: as §1
# GAPDH = GAPDH (Homo sapiens, UniProt P04406); experiment: GAPDH activity; type: biochemical
# [4] = Skin allograft rejection, male tail skin grafted onto female mice; type: in vivo, C57BL/6 mice; details: 100 mg/kg oral gavage daily, day -1 to day 15
# Procedure: C57BL/6 female mice were grafted with skin from the tails of C57BL/6 male mice. The skin graft is a small'square (1 cm^2 and it was implanted onto the left subscapular region of the female mice. From one day before the transplantation until 15 days after it, the mice were treated daily with SANA (100 mg/kg, by oral gavage; SANA group) or vehicle (Control group). The vehicle used was a solution of Carboxy-Methyl-cellulose 0.5% m/v and Tween 80 0.5% v/v. At the end of the 15th day of administration, allografts were checked every 48/72 hours to assess the condition of the grafted skin. Rejection was diagnosed clinically when the allograft lost more than 50% of its size and/or more than I 0% of allograft was necrotic.
# The study followed the protocol described above for FIG. I, but further included a Salicylate group. C57BL/6 female mice were grafted with skin from the tails of C57BL/6 male mice. The skin graft is a small square (1 cm^2 and it was implanted onto the left subscapular region of the female mice. From one day before the transplantation until 15 days after it, the mice were treated daily with Salicylate (100 mg/kg, by oral gavage; Salicylate group), SANA (100 mg/kg, by oral gavage; SANA group) or vehicle (Control group). The vehicle used was a solution of
# Carboxy-Methyl-cellulose 0.5% m/v and Tween 80 0.5% v/v. […]
# [5] = Stopped-flow kinetics of the reaction with BME; type: physicochemical; details: 25° C., triplicate, BME 0.54-2.73 mM, absorbance at 260 nm
# Procedure: In FIG. 2, it is shown that the reaction between SANA and BME was determined to be a second order rate constant. Stopped-flow kinetic measurements were performed using an Rx 2000 stopped flow analyzer (Applied Photophysics). Mixtures of 150 μL NATx0 (25 μM) and solutions of BME at 0.54 mM, 1.09 mM, 1.64 mM, 2.18 mM, and 2.73 mM concentrations.
# The reaction was monitored by following the absorbance at 260 nm and plots were fitted to a simple exponential decay function using Originlab software (version 8.0.). The observed pseudo first order constant at each concentration of BME was extracted from the equation and plotted against the concentration of BME. The second rate constant of the reaction is derived from the slope of the curve and was 182±6 M·^1s·^1. All experiments were carried out at 25° C. by triplicate.
# [6] = Body weight of mice fed a high-fat diet; type: in vivo
# Text: as §1
# [7] = Glucose tolerance test in HFD obese mice; type: in vivo; details: mice under HFD up to 7 months, 100 mg/kg gavage every day during four weeks
# Procedure: Mice under HFD for up to 7 months (mean weight around 40 gr.) were treated with SANA (100 mg/kg; gavage) or phosphate buffer (control) every day during four weeks. The glucose tolerance test were run as per well-known standard procedures.
# [8] = Magnetic resonance imaging (MRI) of fat content; type: in vivo; details: mice
# Text: as §1
# Sequence of GAPDH (P04406 whole entry, species assumed): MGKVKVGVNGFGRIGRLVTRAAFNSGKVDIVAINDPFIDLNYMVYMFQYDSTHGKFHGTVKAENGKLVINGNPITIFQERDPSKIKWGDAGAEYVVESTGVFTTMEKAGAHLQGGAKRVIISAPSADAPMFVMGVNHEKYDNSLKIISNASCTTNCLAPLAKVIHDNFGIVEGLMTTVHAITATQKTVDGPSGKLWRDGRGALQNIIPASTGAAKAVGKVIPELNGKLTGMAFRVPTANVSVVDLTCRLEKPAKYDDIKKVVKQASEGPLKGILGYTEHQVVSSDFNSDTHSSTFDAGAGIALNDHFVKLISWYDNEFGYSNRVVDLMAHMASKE
Structure (SMILES),induction of phase two enzymes Nrf2/Keap I-dependent gene expression [1],"inhibition of the inflammasome (IL-lb), applied with the second signal (inflammasome)","inhibition of the inflammasome (IL-lb), applied with the first signal (inflammasome)",LPS-induced 11-lb secretion into the peritoneum (11-lb secretion),body temperature ([2]; HFD with SANA versus ND mice and HFD mice),"thermogenesis ([2]; mouse, in vivo)",thermogenesis [3],weight loss [3],GAPDH activity (GAPDH),skin allograft rejection compared to salicylic acid [4],survival of grafted skin versus control group [4],second rate constant of the reaction with BME [5] [M·^1s·^1],"rate of weight gain ([6]; mice fed high-fat diet, 29 weeks)","dose dependence of the effect on obesity ([6]; mouse, in vivo)",insulin resistance (glucose tolerance test) [7],fat content (MRI) [8]
"O=C(O)c1ccccc1O [SA, salicylic acid, reference compound]",not by SA,cannot inhibit,cannot inhibit,,,,,,,,,,,,,
"O=C(O)c1cc(/C=C/[N+](=O)[O-])ccc1O [SANA, 2-hydroxy-5-(2-nitroethenyl)benzoic acid]",induction,potent inhibitor,potent inhibitor,decreases,higher body temperatures than that of ND mice and HFD mice,inducing thermogenesis,does not induce,does not induce,does not inhibit,significant reduction in skin allograft rejection,prolonged survival of grafted skin,182±6,reduced the rate of weight gain,dose response effect,reverses insulin resistance,induces loss of fat content
